{"source": "patent US20250281508A1", "about": "“CATIONIC STEROIDAL ANTIMICROBIAL SALTS” (BRIGHAM YOUNG UNIVERSITY, priority 2015, published 2025)", "key": {"[1]": {"test": "Coating stability (sluff off) of polyurethane coatings on medical devices immersed in water", "format": "physicochemical", "description": "(§1) In a first comparative test, medical devices made from various substrate materials (i.e., stainless steel, titanium, and silicone) were coated with polyurethane coatings containing either di-NDSA salts of CSA compounds (i.e., CSA-13 and/or CSA-131) or HCl acid addition salts of the same CSA compounds, and then tested for long-term stability when immersed in water. Coating stability was determined by measuring how fast the coatings began to sluff off from the medical device. The NDSA salts are di-addition salts."}, "[2]": {"test": "Stability of CSA-13 salts: purity under various conditions", "format": "physicochemical", "description": "Approximately 300 mg of CSA-13 was weighed into a scintillation vial. 6 mL of tetrohydrofuran was added to the vial. Hydrochloric acid (2 equivalents) was then added to the vial. […] Solids were isolated and dried at ambient temperature prior to analysis."}, "[3]": {"test": "Coating stability (sluff off) of silicone coatings on medical devices immersed in water", "format": "physicochemical", "description": "as §1, with “second” for “first”, “silicone” for “polyurethane”, “device.” for “device. The NDSA salts are di-addition salts.”"}, "[4]": {"test": "Reactivity with ethylene oxide (EtO) in polyurethane coating, by mass spectroscopy", "format": "physicochemical", "conditions": "ETT with polyurethane coating sterilized multiple times with EtO", "text": "In a seventh comparative test, the elution rate and antibacterial activity of polyurethane coatings containing either the di-NDSA salt of a representative CSA compound (i.e., CSA-131) or the HCl acid addition salt of the same CSA compound following sterilization with ethylene oxide (EtO) were compared, and also the tendency of the acid addition salt of the CSA compound to react with the EtO.\nFor EtO reactivity with the HCl acid addition salt of CSA-131, the following percentages of CSA-131 and CSA-131-EtO adducts were observed via mass spectroscopy following EtO treatment of a medical device with a polyurethane coating containing the HCl acid addition salt of CSA-131.\n(§2) Moreover, elution of CSA-131 from the ETT with the same polyurethane coating containing the di-NDSA of CSA-131 remained relatively consistent for 96 hours, providing continuous activity against biofilms. This is shown by the data in Table 25."}, "[5]": {"test": "Dynamic vapor sorption (DVS) analysis, XRPD before and after", "format": "physicochemical", "text": "FIG. 9 provides an overlay of the XRPD spectrum pre- and post-DVS analysis."}, "[6]": {"test": "Rate of elution of CSA from silicone coatings immersed in water", "format": "physicochemical", "text": "(§3) In a fourth comparative test, medical devices made from various substrate materials (i.e., stainless steel, titanium, and silicone) were coated with silicone coatings containing either a di-NDSA salt of a representative CSA compound (i.e., CSA-131) or the HCl acid addition salt of the same CSA compound, and then tested to determine the rate of elution of the CSA compound from the coated medical device when immersed in water."}, "[7]": {"test": "Elution of CSA-131 from polyurethane coating following EtO sterilization", "format": "physicochemical", "conditions": "for % of Total μg on OD: total CSA-131 content on OD 3976 μg; for Eluted Amount in μg/cm^3: total OD surface area 99.4 cm^2; for Average Amount Eluted: ETT polyurethane coating", "description": "as §2, with “The elution rate of CSA-131 from the same polyurethane coating containing the HCl acid addition salt of CSA-131 (with solution exchange every 24 hours) is shown in Table 24: […] Moreover,” for “Moreover,”"}, "[8]": {"test": "Rate of elution of CSA from impregnated PLGA copolymer devices immersed in water", "format": "physicochemical", "conditions": "impregnated PLGA copolymer device", "text": "In a fifth comparative test, medical devices were made from PLGA copolymer impregnated with either a di-NDSA salt of a representative CSA compound (i.e., CSA-131) or the HCl acid addition salt of the same CSA compound, and then tested to determine the rate of elution of the CSA compound from the medical device when immersed in water."}, "[9]": {"test": "Rate of elution of CSA from polyurethane coatings immersed in water", "format": "physicochemical", "text": "as §3, with “a third” for “a fourth”, “with polyurethane” for “with silicone”"}, "[10]": {"test": "Solvent solubility test (solvent addition technique)", "format": "physicochemical", "description": "(§4) Solubility values were estimated by a solvent addition technique, based on the following protocol: CSA-13 (20 mg) was weighed and individually distributed to 24 vials. Each solvent was added to the appropriate vial in 10 aliquots of 10 μL, 5 aliquots of 20 μL, 3 aliquots of 100 μL, and 1 aliquot of 500 μL. If complete dissolution was observed, the additions were stopped. Between additions, the sample was stirred to further encourage dissolution. If […] of solvent was added without dissolution, the solubility was calculated to be below this point. Polarized light microscopy analysis was performed on solids obtained from acetonitrile, 1,4-dioxane, ethyl acetate, isopropanol, and THF.\nA solubility screen was performed as described above for the sulphate salt of CSA-13.\nas §4, with “CSA-44” for “CSA-13”, “from acetone,” for “from”, “1,4-dioxane, ethanol,” for “1,4-dioxane,”, “acetate,” for “acetate, isopropanol,”, “methanol.” for “THF.”"}, "[11]": {"conditions": "polyurethane coating on Silicone"}, "[12]": {"conditions": "polyurethane coating on Stainless Steel"}, "[13]": {"conditions": "polyurethane coating on Titanium"}, "[14]": {"conditions": "silicone coating on Stainless Steel"}}}
{"smiles": "CCCCCCCCNCCCC(C)C1CCC2C3C(OCCCN)CC4CC(OCCCN)CCC4(C)C3CC(OCCCN)C12C.O=S(=O)(O)c1cccc2c(S(=O)(=O)O)cccc12.O=S(=O)(O)c1cccc2c(S(=O)(=O)O)cccc12", "note": "(stereo not shown) [CSA-13 NDSA]", "values": [{"measurement": "Sluff Off Time", "setting": "[1]; [11]", "value": "None after 30+ days"}, {"measurement": "Sluff Off Time", "setting": "[1]; [12]", "value": "None after 30+ days"}, {"measurement": "Sluff Off Time", "setting": "[1]; [13]", "value": "None after 30+ days"}, {"measurement": "Purity (%)", "setting": "[2]; 40° C./75% RH", "value": 97.93, "unit": "%"}, {"measurement": "Purity (%)", "setting": "[2]; 80° C.", "value": 98.16, "unit": "%"}, {"measurement": "Purity (%)", "setting": "[2]; Ambient light", "value": 98.57, "unit": "%"}, {"measurement": "Purity (%)", "setting": "[2]; Starting Purity", "value": 98.52, "unit": "%"}, {"measurement": "Sluff Off Time", "setting": "[3]; silicone coating on Silicone", "value": "None after 30+ days"}, {"measurement": "Sluff Off Time", "setting": "[3]; [14]", "value": "None after 30+ days"}, {"measurement": "Sluff Off Time", "setting": "[3]; silicone coating on Titanium", "value": "None after 30+ days"}]}
{"smiles": "CCCCCCCCCCCCNCCCC(C)C1CCC2C3C(OCCCN)CC4CC(OC(=O)CCN)CCC4(C)C3CC(OCCCN)C12C.O=S(=O)(O)c1cccc2c(S(=O)(=O)O)cccc12.O=S(=O)(O)c1cccc2c(S(=O)(=O)O)cccc12", "note": "(stereo not shown) [CSA-131 NDSA]", "values": [{"measurement": "EtO adducts observed by mass spectroscopy", "setting": "[4]", "value": "no EtO adducts were observed"}, {"measurement": "Solubility in Ethanol", "setting": "ethanol", "value": "<0.05", "unit": "mg/mL"}, {"measurement": "Solubility in Water", "setting": "water", "value": "<0.02", "unit": "mg/mL"}, {"measurement": "Effect of DVS analysis on crystallinity", "setting": "[5]; XRPD after DVS analysis (FIG. 8, 9)", "value": "did not significantly impact crystallinity"}, {"measurement": "DVS hysteresis", "setting": "[5]; dynamic vapor sorption isotherm (FIG. 7)", "value": "minimal hysteresis"}, {"measurement": "Sluff Off Time", "setting": "[1]; [11]", "value": "None after 30+ days"}, {"measurement": "Sluff Off Time", "setting": "[1]; [12]", "value": "None after 30+ days"}, {"measurement": "Sluff Off Time", "setting": "[1]; [13]", "value": "None after 30+ days"}, {"measurement": "Sluff Off Time", "setting": "[3]; silicone coating on Silicone", "value": "None after 30+ days"}, {"measurement": "Sluff Off Time", "setting": "[3]; [14]", "value": "None after 30+ days"}, {"measurement": "Sluff Off Time", "setting": "[3]; silicone coating on Titanium", "value": "None after 30+ days"}, {"measurement": "Time for 50% of CSA to elute", "setting": "[6]; silicone coating on Silicone", "value": ">7", "unit": "days"}, {"measurement": "Time for 50% of CSA to elute", "setting": "[6]; [14]", "value": ">7", "unit": "days"}, {"measurement": "Time for 50% of CSA to elute", "setting": "[6]; silicone coating on Titanium", "value": ">7", "unit": "days"}, {"measurement": "% of Total μg on OD", "setting": "[7]; 0-24 hours", "value": 2.37, "unit": "%"}, {"measurement": "Eluted Amount in μg/cm^3", "setting": "[7]; 0-24 hours", "value": 0.95, "unit": "μg/cm^2"}, {"measurement": "% of Total μg on OD", "setting": "[7]; 24-48 hours", "value": 2.14, "unit": "%"}, {"measurement": "Eluted Amount in μg/cm^3", "setting": "[7]; 24-48 hours", "value": 0.85, "unit": "μg/cm^2"}, {"measurement": "% of Total μg on OD", "setting": "[7]; 48-72 hours", "value": 1.63, "unit": "%"}, {"measurement": "Eluted Amount in μg/cm^3", "setting": "[7]; 48-72 hours", "value": 0.65, "unit": "μg/cm^2"}, {"measurement": "% of Total μg on OD", "setting": "[7]; 72-96 hours", "value": 2.01, "unit": "%"}, {"measurement": "Eluted Amount in μg/cm^3", "setting": "[7]; 72-96 hours", "value": 0.81, "unit": "μg/cm^2"}, {"measurement": "Average Amount Eluted", "setting": "[7]; Total over 0-96 hours", "value": 324, "unit": "µg"}, {"measurement": "Average Amount Eluted", "setting": "[7]; time interval 0-24 hours", "value": 94.3, "unit": "µg"}, {"measurement": "Average Amount Eluted", "setting": "[7]; time interval 24-48 hours", "value": 84.9, "unit": "µg"}, {"measurement": "Average Amount Eluted", "setting": "[7]; time interval 48-72 hours", "value": 64.9, "unit": "µg"}, {"measurement": "Average Amount Eluted", "setting": "[7]; time interval 72-96 hours", "value": 80.1, "unit": "µg"}, {"measurement": "% of Total μg on OD", "setting": "[7]; Total over 0-96 hours", "value": 8.15, "unit": "%"}, {"measurement": "Eluted Amount in μg/cm^3", "setting": "[7]; Total over 0-96 hours", "value": 3.26, "unit": "μg/cm^2"}, {"measurement": "Time for 50% of CSA to elute", "setting": "[8]", "value": ">7", "unit": "days"}, {"measurement": "Time for 50% of CSA to elute", "setting": "[9]; [11]", "value": ">7", "unit": "days"}, {"measurement": "Time for 50% of CSA to elute", "setting": "[9]; [12]", "value": ">7", "unit": "days"}, {"measurement": "Time for 50% of CSA to elute", "setting": "[9]; [13]", "value": ">7", "unit": "days"}]}
{"smiles": "CCCCCCCCNCCCC(C)C1CCC2C3C(OCCCN)CC4CC(OCCCN)CCC4(C)C3CC(OCCCN)C12C.O=S(=O)(O)O", "note": "(stereo not shown) [sulphate salt of CSA-13]", "values": [{"measurement": "Approximate Solubility at 22° C.", "setting": "[10]; solvent 1,4-dioxane", "value": "<11.3", "unit": "mg/mL"}, {"measurement": "Approximate Solubility at 22° C.", "setting": "[10]; solvent 1-butanol", "value": ">37.7", "unit": "mg/mL"}, {"measurement": "Approximate Solubility at 22° C.", "setting": "[10]; solvent 2-propanol", "value": ">20.9", "unit": "mg/mL"}, {"measurement": "Approximate Solubility at 22° C.", "setting": "[10]; solvent Acetone", "value": "<10.5", "unit": "mg/mL"}, {"measurement": "Approximate Solubility at 22° C.", "setting": "[10]; solvent Acetonitrile", "value": "<10.4", "unit": "mg/mL"}, {"measurement": "Approximate Solubility at 22° C.", "setting": "[10]; solvent Dichloromethane", "value": ">193.9", "unit": "mg/mL"}, {"measurement": "Approximate Solubility at 22° C.", "setting": "[10]; solvent Ethanol", "value": ">98.4", "unit": "mg/mL"}, {"measurement": "Approximate Solubility at 22° C.", "setting": "[10]; solvent Methanol", "value": ">199.7", "unit": "mg/mL"}, {"measurement": "Approximate Solubility at 22° C.", "setting": "[10]; solvent TBME", "value": "<10.1", "unit": "mg/mL"}, {"measurement": "Approximate Solubility at 22° C.", "setting": "[10]; solvent Tetrahydrofuran", "value": "<11.0", "unit": "mg/mL"}, {"measurement": "Approximate Solubility at 22° C.", "setting": "[10]; solvent Toluene", "value": ">102.8", "unit": "mg/mL"}, {"measurement": "Purity (%)", "setting": "[2]; 40° C./75% RH", "value": 97.50, "unit": "%"}, {"measurement": "Purity (%)", "setting": "[2]; 80° C.", "value": 97.96, "unit": "%"}, {"measurement": "Purity (%)", "setting": "[2]; Ambient light", "value": 99.76, "unit": "%"}, {"measurement": "Purity (%)", "setting": "[2]; Starting Purity", "value": 99.34, "unit": "%"}]}
